What was measured:
eIF2Bα^V183F = eIF2Bα^V183F (Homo sapiens, UniProt Q14232, V183F); assay: Isothermal titration calorimetry, eIF2Bα V183F; assay type: binding; conditions: ITC
Protocol: Interactions between recombinant protein and sugar phosphates were conducted with a MicroCal PEAQ-ITC (Malvern Panalytical Inc.). Experiments were performed in 25 mM HEPES, 150 mM NaCl, pH 7.5 at 20 °C. […] The final titration curves were fitted using MicroCal ITC data analysis software, assuming a single binding site per monomer.

eIF2Bα = target: T1, eIF2Bα (Homo sapiens, UniProt Q14232); assay: MIDAS (mass spectrometry integrated with equilibrium dialysis) metabolite binding screen; conditions: eIF2Bα2; 50 μM per metabolite pool; 40 h dialysis at 4 °C
T1 construct: made in house; host or cells: E. coli BL21(DE3)
T1 sequence (Q14232 1-305): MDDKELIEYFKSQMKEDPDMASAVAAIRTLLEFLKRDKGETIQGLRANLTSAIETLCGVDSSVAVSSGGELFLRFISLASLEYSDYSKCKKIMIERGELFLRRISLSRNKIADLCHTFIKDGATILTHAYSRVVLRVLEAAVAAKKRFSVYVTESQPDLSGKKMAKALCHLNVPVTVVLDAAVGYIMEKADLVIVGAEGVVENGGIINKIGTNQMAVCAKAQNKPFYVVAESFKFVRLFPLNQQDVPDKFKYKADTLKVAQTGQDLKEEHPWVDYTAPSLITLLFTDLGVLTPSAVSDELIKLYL
In short: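 Hits called at Storey q < 0.1 on z-scores of PCA-corrected log2 fold change between protein and metabolite chambers, quantified by FIA-MS in triplicate.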

eIF2B(βδγε) = target: T2, eIF2B(βδγε) (Homo sapiens, UniProt P49770+Q9UI10); assay: Isothermal titration calorimetry, eIF2B(βδγε) subcomplex; assay type: binding; conditions: ITC
T2 construct: made in house
Protocol: Interactions between recombinant protein and sugar phosphates were conducted with a MicroCal PEAQ-ITC (Malvern Panalytical Inc.). Experiments were performed in 25 mM HEPES, 150 mM NaCl, pH 7.5 at 20 °C. The sugar phosphate concentration in the syringe was 1 mM or 1.5 mM, and ~3.5 μL aliquots were injected into cells containing 300 μL eIF2Bα or eIF2B(βδγε) at a concentration of 20–30 μM. The final titration curves were fitted using MicroCal ITC data analysis software, assuming a single binding site per monomer.

[1] = target: T3, phospho-eIF2α binding to eIF2B (Homo sapiens, UniProt P49770+Q14232+Q9UI10); assay: Phospho-eIF2α co-immunoprecipitation with FLAG-tagged eIF2B; conditions: lysate of thapsigargin-treated HEK293T eIF2Bβ-FLAG cells; ligand 2 h at 4 °C
T3 construct: endogenous in cells; host or cells: HEK293T with FLAG knock-in at the endogenous eIF2Bβ locus, treated with thapsigargin; lysate, anti-FLAG IP
Protocol: HEK293T cells endogenously expressing eIF2Bβ with a C-terminal FLAG tag were maintained in DMEM High Glucose (Corning CellGro) supplemented with 10% FBS (Gibco) and antibiotic-antimycotic (Gibco). Upon reaching 90% confluency, cells were treated with either DMSO or 100 nM thapsigargin (Sigma) for 4 h. Cells were harvested and lysed in 25 mM HEPES, 150 mM KCl, 1% NP-40, 1 mM EDTA, pH 7.4 + Complete protease inhibitor cocktail (Roche) and PhosStop (Roche) on ice for 20 min. Lysates were cleared by centrifugation at 18,000 × g, 20 min, 4 °C, and transferred to Eppendorf tubes containing anti-FLAG M2 magnetic beads (Sigma). Mixtures were incubated overnight at 4 °C. To test the effect of ligands, these were added to the mixtures and incubated for an additional 2 h at 4 °C. Beads were washed three times with lysis buffer, eluted with 1× LDS buffer (Invitrogen), and subjected to SDS-PAGE followed by Western Blot with the indicated antibodies.

eIF2Bα^V183F, sequence (Q14232 whole entry V183F): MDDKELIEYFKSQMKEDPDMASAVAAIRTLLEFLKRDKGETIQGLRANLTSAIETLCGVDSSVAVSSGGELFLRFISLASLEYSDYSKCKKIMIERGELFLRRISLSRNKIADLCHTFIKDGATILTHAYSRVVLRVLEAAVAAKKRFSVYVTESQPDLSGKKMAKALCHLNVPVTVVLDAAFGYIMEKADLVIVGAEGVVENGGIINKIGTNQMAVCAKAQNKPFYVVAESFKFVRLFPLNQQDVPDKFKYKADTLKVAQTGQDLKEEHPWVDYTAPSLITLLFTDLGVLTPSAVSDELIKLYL
T2 sequence (P49770 whole entry): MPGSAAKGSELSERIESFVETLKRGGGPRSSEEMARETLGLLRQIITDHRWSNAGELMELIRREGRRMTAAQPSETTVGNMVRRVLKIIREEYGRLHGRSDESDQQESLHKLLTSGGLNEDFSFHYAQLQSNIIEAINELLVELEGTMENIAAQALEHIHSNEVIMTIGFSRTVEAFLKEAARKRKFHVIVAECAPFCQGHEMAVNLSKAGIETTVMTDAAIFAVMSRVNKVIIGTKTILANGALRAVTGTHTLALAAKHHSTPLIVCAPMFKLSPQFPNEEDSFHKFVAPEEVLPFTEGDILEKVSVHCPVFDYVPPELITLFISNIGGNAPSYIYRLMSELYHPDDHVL
T2 sequence (Q9UI10 whole entry): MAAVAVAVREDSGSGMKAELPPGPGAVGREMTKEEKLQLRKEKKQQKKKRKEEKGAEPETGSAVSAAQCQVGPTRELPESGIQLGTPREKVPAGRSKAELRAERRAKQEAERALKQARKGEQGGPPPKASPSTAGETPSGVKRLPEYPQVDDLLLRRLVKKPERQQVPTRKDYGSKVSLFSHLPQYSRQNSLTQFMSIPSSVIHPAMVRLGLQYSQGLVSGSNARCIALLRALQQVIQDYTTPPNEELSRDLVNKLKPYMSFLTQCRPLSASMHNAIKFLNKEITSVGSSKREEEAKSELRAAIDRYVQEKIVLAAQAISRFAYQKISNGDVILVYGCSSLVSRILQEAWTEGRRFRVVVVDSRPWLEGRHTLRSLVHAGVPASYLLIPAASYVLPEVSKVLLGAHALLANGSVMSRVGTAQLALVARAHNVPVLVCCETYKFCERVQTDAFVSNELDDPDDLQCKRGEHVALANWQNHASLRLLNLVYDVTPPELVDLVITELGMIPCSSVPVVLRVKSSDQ
T2 sequence (Q9NR50 whole entry partner): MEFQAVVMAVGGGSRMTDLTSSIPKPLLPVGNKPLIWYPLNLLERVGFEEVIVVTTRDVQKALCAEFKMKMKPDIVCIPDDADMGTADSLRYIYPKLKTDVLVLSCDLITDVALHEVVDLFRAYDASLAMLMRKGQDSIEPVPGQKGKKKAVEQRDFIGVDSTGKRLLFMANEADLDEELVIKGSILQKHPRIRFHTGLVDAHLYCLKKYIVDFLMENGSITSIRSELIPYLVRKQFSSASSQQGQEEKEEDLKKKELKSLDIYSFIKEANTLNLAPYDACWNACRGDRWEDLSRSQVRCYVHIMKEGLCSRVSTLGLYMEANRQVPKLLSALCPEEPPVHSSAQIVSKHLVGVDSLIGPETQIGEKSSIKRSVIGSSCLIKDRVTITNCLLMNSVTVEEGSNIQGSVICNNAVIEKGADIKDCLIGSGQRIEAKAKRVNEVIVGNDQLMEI
T2 sequence (Q13144 whole entry partner): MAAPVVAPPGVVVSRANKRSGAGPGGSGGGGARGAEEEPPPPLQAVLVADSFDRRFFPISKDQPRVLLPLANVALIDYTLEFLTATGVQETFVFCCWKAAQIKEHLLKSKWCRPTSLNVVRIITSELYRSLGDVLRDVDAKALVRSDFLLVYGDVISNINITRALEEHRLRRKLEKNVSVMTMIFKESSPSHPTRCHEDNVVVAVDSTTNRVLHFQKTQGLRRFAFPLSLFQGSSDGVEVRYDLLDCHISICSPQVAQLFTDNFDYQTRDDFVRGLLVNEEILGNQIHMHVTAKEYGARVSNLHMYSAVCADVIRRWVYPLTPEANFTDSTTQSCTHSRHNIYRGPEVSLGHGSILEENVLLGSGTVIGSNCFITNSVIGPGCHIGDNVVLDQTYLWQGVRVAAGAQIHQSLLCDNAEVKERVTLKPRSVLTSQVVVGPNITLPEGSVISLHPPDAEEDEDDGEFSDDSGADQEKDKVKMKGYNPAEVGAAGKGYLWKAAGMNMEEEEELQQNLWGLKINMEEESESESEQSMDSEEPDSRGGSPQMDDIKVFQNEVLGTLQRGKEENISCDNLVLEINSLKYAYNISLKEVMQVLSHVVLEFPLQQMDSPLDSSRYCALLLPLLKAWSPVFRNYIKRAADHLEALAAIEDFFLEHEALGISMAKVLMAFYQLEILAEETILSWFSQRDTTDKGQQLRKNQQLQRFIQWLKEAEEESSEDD
T3 sequence (P49770 whole entry, one chain of several): as the sequence (P49770 whole entry) above
T3 sequence (Q9UI10 whole entry, one chain of several): as the sequence (Q9UI10 whole entry) above
T3 sequence (Q9NR50 whole entry partner, one chain of several): as the sequence (Q9NR50 whole entry partner) above
T3 sequence (Q13144 whole entry partner, one chain of several): as the sequence (Q13144 whole entry partner) above

What does the source list for `O=C(CO)[C@@H](O)[C@H](O)[C@H](O)COP(=O)(O)O` [F6P, fructose-6-phosphate]?
Kd (eIF2Bα^V183F): 6.3 ± 0.7 µM; MIDAS result (enrichment in the protein chamber / hit status) (eIF2Bα): not a MIDAS hit; interaction with eIF2B(βδγε) subcomplex (eIF2B(βδγε)): did not interact appreciably; co-immunoprecipitation of phospho-eIF2α with FLAG-tagged eIF2B [1]: did not decrease the interaction

— PMC8187479, “Sugar phosphate activation of the stress sensor eIF2B” (Nature Communications, 2021)
